The values below come from patent publication US11458163B2, “Platinum(IV) conjugates and methods of use” (priority 2019, dated 2022).

“Also recorded” adds a separate entry of the source.

For series [1] the following is noted: cited from earlier work.
The subject of series [2] is AT84 murine head and neck squamous cell carcinoma cell line. In words: Anti-proliferation study, AT84 cells (Resazurin Blue). The series is classed as cell-based, mouse. The conditions noted are these: 72 hours, n=7-8. As for the experimental part:
AT84 cells were derived from a spontaneous squamous cell carcinoma in the oral mucosa of a C3H mouse (19,20) and were gifted by Aldo Venuti (Regina Elena National Cancer Institute, Rome, Italy). Cells tested negative for interspecies contamination (Idexx BioResearch, CellCheck STR profiling). Cells tested negative for rodent pathogens (Idexx BioResearch, IMPACT I PCR profile). Cells tested negative for Mycoplasm contamination (Lonza, Basel, Switzerland, MycoAlert test kit). Cells were cultured in RPMI-1640 media (Gibco, Thermo Fisher Scientific, Waltham, Mass.) supplemented with 10% FBS (Corning Corning, N.Y.), and 100 U/mL penicillin/100 μg/mL streptomycin (HyClone, Thermo Fisher Scientific, Waltham, Mass.) in a humidified incubator at 37° C. and 5% CO2.
AT84 cells were maintained in RPMI-1640 media (Gibco) with 10% fetal bovine serum (Corning), and 100 U/mL penicillin/100 μg/mL streptomycin (HyClone) in a humidified incubator at 37° C. and 5% CO2. Cells were seeded into 96-well plates (3,000 cells/well in 90 ul media) and allowed to attach overnight. […] Fluorescence (λex 550 nm, λem 605 nm) was quantified with a SpectraMax Gemini XS plate-reader (Molecular Devices, Sunnyvale, Calif.). […] Data from at least five separate experiments was analyzed using non-linear regression (GraphPad Prism 5.0) to generate […].
For orientation: Resazurin is reduced to fluorescent resorufin, in cell work by metabolically active cells.

The test system of the next series is calreticulin (CRT). Description: Calreticulin translocation in AT84 cells transfected with mouse CRT-HaloTag-KDEL fusion protein. The note with it: 500 μM, 12-15 hours (overnight). The format is cell-based. An excerpt: Plasmid: The full cDNA sequence of the insert was published by Golden et al. (21) and codes for a mouse calreticulin-HaloTag®-KDEL fusion protein. The cDNA sequence includes Mus musculus calreticulin (Accession BC003453, Version BC003453.1, CDS 37-1286), the HaloTag® vector (Accession HM157289, Version HM157289.1, CDS 197-1081), and a KDEL sequence. This cDNA sequence was inserted into a mammalian expression vector, pD643-Rc, by DNA2.0 (now ATUM, Newark, Calif.). The vector includes a CayenneRFP reporter protein (Ex:554 nm/Em:590 nm) used to visualize positively transfected cells.
AT84 cells were plated in 6-well culture plates and allowed to grow to ˜90% confluence. Cells were transfected with a plasmid containing a mouse calreticulin-HaloTag®-KDEL fusion protein and a CayenneRFP reporter protein using lipofectamine (Invitrogen, Carlsbad, Calif.). Five microliters of lipofectamine was added to 150 μl Opti-MEM (Gibco, Thermo Fisher Scientific, Waltham, Mass.). Ten micrograms of plasmid DNA was added to 150 μl Opti-MEM. Both solutions were incubated at room temperature for 5 minutes. DNA solution was added to lipofectamine solution and incubated for 20 minutes at room temperature. During incubation, media on the cells were replaced with serum-free media (2 mL). 250 μl of DNA:lipofectamine solution was added dropwise to each well, which contained 2 mL of serum-free media. […]

For another series, the system named is calf thymus DNAs. The conditions noted are these: cited from earlier work.
A further series relates to AT84 allografts. Description: Immunocompetent tumor model: orthotopic AT84 allografts in C3H mice. The series is classed as in vivo. As for the experimental part:
Wildtype C3H mice (Charles River Strain 025, 6-8 weeks old, 20-25 g) were used for in vivo tumor studies. Both male and female mice were used in the studies. […] Mice were anesthetized using 5% isoflurane in O2 for 5 minutes. One million AT84 cells in 50 μl PBS were injected subcutaneous (s.c.) into the floor of the mouth via an extra-oral route of C3H mice to obtain orthotopic allograft tumors (19,20). […] Under isoflurane anesthesia, Pt(IV)-toco/HA-toco composition (3 mg/kg on Pt(IV)-toco basis) or vehicle (50 μl hyaluronan-tocopherol, 16.7 mg/mL) was injected intratumoral on days 4, 11, and 18 after the tumor cell injection. Tumor size was calculated: tumor volume (mm^3)=0.52×(width)^2×length, where length is the longer of two perpendicular dimensions.

Series [3] in a line: Ongoing tolerability studies in rabbits. The series is classed as in vivo. The note with it: proposed dose level.
The subject of a further series is MDA-1986 xenografts. In words: Immunodeficient tumor model: orthotopic MDA-1986 xenografts in nude mice. The format is in vivo. How it is done:
Nude mice (Charles River Ath/nu, 6-8 weeks old, 20-25 g) were used for in vivo tumor studies. Both male and female mice were used in the studies. […] Mice were anesthetized using 5% isoflurane in O2 for 5 minutes. One million MDA-1986 cells in 50 μl PBS were injected subcutaneous into the left cheek of nude mice to obtain orthotopic xenograft tumors (13,15). Treatment began when tumors reached 75 mm^3. Under isoflurane anesthesia, Pt(IV)-toco/HA-toco composition (3 mg/kg on Pt(IV)-toco basis) or vehicle (1.5 MDa hyaluronan, 16.7 mg/mL) was injected intratumoral on days 14, 21, and 28 after the tumor cell injection. Tumor size was calculated using the same equation as stated in the C3H model.

The test system of series [4] is naturally occurring cancers. In words: Open-label compassionate-care clinical trial of intralesional therapy in pet dogs. The format is in vivo, dog. The note with it: proposed dose level. How it is done:
An open-label, compassionate-care clinical trial was conducted in pet dogs with various types of cancer to evaluate the feasibility of intralesional delivery of Pt(IV)-toco/HA-toco composition as chemotherapy. The most common types of cancer include squamous cell carcinoma, soft tissue sarcoma, and oral melanoma. Typical exclusion criteria such as small breeds, large tumor burden, short life expectancy, metastatic disease, and certain pre-existing conditions (e.g., Cushing's disease) were not implemented in this study.
The reported study was conducted in 18 veterinary hospitals in the Kansas City area. Most pets received either Pt(IV)-toco/HA-toco or HylaPlat treatment at 3-week intervals for up to 10 treatments, ranging from 1 to 17.5 mg/m^2 on cisplatin basis. Clinical chemistry and hematology were obtained before and after each treatment to evaluate the tolerability of the therapy. A physical exam including measurements of tumor(s) was performed approximately every 3-weeks to monitor the response status of the subjects.

Where [5] appears, read: last pair of measurements vs control, 3 mg/kg intratumoral once per week for 3 weeks.

In the case of `N.N.O=C([O-])C1(C(=O)[O-])CCC1.[Pt+2]` [carboplatin], the safety in cats result in series [1] is listed as “may be safe”.

For orientation: IC50 means the concentration that inhibits the measured activity by half. A high value points to weaker potency. On to `N.N.[Cl][Pt][Cl]` [cisplatin, Cis-Dichlorodiamine platinum (II)], for which, in series [1], the safety in cats result is “hydrothorax, pulmonary and mediastinal edema”. The IC50 in series [2] turned out to be 3000 ± 260 nM. In the series on calreticulin (CRT), the “CRT translocation to the cell surface (indicator of ICD)” value was “does not cause CRT translocation to the membrane; also recorded: does not show CRT translocation”.

For `O=C1[O][Pt]2([NH][C@@H]3CCCC[C@H]3[NH]2)[O]C1=O` [oxaliplatin, Oxaliplatin], in the series with calf thymus DNAs, the “formation of Pt-DNA adducts relative to cisplatin” value was “approximately one tenth”. Also, the “CRT translocation to the cell surface (indicator of ICD)” value in the series on calreticulin (CRT) is reported as “membrane translocation of CRT is observed; also recorded: show CRT translocation”.

In the case of Pt(IV)-Su-Gly-Toco [Pt(IV)-toco], in the series with AT84 allografts (3 mg/kg on Pt(IV)-toco basis intratumoral, days 4, 11, 18), the “tumor volume, mean±SEM, last pair of measurements” value is 1024±129 mm^3. This compound also came in with a survival rate in the series with AT84 allografts (by the time all control mice have succumbed) of 100%. Besides, the tumor inhibition was 49% in the series with AT84 allografts (setting [5]) and 43% in the series on MDA-1986 xenografts (setting [5]). The “dose-limiting toxicities (renal dysfunction, ototoxicity, peripheral neuropathy)” value in series [3] and in series [4] was “did not cause any dose-limiting toxicities” each time. In the series with MDA-1986 xenografts (3 mg/kg on Pt(IV)-toco basis intratumoral, days 14, 21, 28), the “tumor volume, mean SEM, last pair of measurements” value is listed as 812±150 mm^3.
